Structures are written as SMILES. Counter-ions that a name gives are not always drawn.

In general, melting point refers to the temperature of the solid-liquid transition. For the compound `Cn1c(C(=O)Nc2cc(C(C)(C)C)c[nH]c2=O)cc2cccc(Oc3ccncc3)c21` [Example 5, 1-methyl-7-(pyridine-4-yloxy)-1H-indole-2-carboxylic acid (5-tert-butyl-2-oxo-1,2-dihydropyridin-3-yl)-amide], the melting point was 236 to 238 °C (dec.). With `Cn1c(C(=O)Nc2cc(C(C)(C)C)ccc2[S+](C)[O-])cc2cccc(Oc3ccncc3)c21` (stereo not drawn) [Example 3, 1-methyl-7-(pyridine-4-yloxy)-1H-indole-2-carboxylic acid (5-tert-butyl-2-methanesulfinyl-phenyl)-amide] the figure was 88 to 92 °C (dec.); with `Cn1cc(C(C)(C)C)cc(NC(=O)c2cc3cccc(Oc4ccncc4)c3n2C)c1=O` [Example 6, 1-methyl-7-(pyridine-4-yloxy)-1H-indole-2-carboxylic acid (5-tert-butyl-1-methyl-2-oxo-1,2-dihydropyridin-3-yl)-amide], 74 to 76 °C (dec.); with `Cn1c(C(=O)Nc2cc(C(C)(C)C)ccc2S(C)(=O)=O)cc2cccc(Oc3ccncc3)c21` [Example 4, 1-methyl-7-(pyridine-4-yloxy)-1H-indole-2-carboxylic acid (5-tert-butyl-2-methanesulfonyl-phenyl)-amide], 158 to 159 °C (dec.).

In the case of `COc1cnc(C(C)(C)C)cc1NC(=O)c1cc2cccc(Oc3ccnc(N4CCN(C)CC4)n3)c2n1C` (as salt: salt) [Example 2, 1-methyl-7-[2-(4-methyl-piperazin-1-yl)-pyrimidin-4-yloxy]-1H-indole-2-carboxylic acid (2-tert-butyl-5-methoxy-pyridin-4-yl)-amide], the melting point is 72 to 74 °C (dec.). Next, `Cc1ncc(C(C)(C)C)cc1NC(=O)c1cc2cccc(Oc3ccncc3)c2n1C` [Example 7, 1-methyl-7-(pyridine-4-yloxy)-1H-indole-2-carboxylic acid (5-tert-butyl-2-methyl-pyridin-3-yl)-amide]: 52 to 56 °C (dec.).

Values taken from patent publication US7592332B2, “Cytokine inhibitors” (Boehringer Ingelheim Pharmaceuticals, Inc., priority 2004, dated 2009).
